# Measurements from publication PMC11579209, “Population pharmacokinetics and exposure–response relationships of maribavir in transplant recipients with cytomegalovirus infection” (Journal of Pharmacokinetics and Pharmacodynamics, 2024).
# Experiment: Population pharmacokinetic (PopPK) model (NONMEM), pooled maribavir plasma concentration–time data from phase 1, 2 and 3 studies
# Assay type: in vivo, human
# Method: A PopPK model was developed using non-linear mixed effects modeling (NONMEM) (v7.4.3) with pooled maribavir plasma concentration–time data from 667 participants in nine phase 1 studies (n = 182, single or repeated doses of 100, 200 or 400 mg), two phase 2 studies (NCT01611974, EudraCT 2010-024247-32, 400, 800, and 1200 mg BID), and one phase 3 study (SOLSTICE, NCT02931539, 400 mg BID; phase 2 and 3 combined: n = 485). The final PopPK analysis dataset comprised data from individuals who had received at least one dose of maribavir and had at least one quantifiable post-dose concentration. This model was used to describe the time course of maribavir plasma concentrations in healthy volunteers, participants with hepatic or renal impairment, stable renal transplant patients, and hematopoietic cell transplant (HCT) or solid organ transplant (SOT) recipients with CMV infection, including those with refractory CMV infection.
# One- (ADVAN2 TRANS2), two- (ADVAN4 TRANS4), and three (ADVAN12 TRANS4)-compartment models with first-order absorption, an absorption lag time, and linear clearance were initially investigated. The NONMEM control stream for the final model can be found in the Supplementary Methods S1 of the Supplementary Material 1. […] Consequently, the effects of co-administration of strong CYP3A4 inhibitors and strong CYP3A4 inducers were considered for inclusion in the base model. The effect of body weight (scaled to 70 kg) on both clearance and volume terms was also considered for inclusion in the base model.
# Structural and variance model parameters were estimated for the base model, and inter-individual variability (IIV) was included on all structural parameters. Runs with untransformed data were used to test the residual error models. Plots of weighted residuals were evaluated for homoscedasticity with respect to predictions and time since dose, and the structure of the base model was expanded as necessary to best reflect the characteristic shape of the observations over time. Dose and time dependency were explored for PK model parameters. Parameter estimation was performed using Monte Carlo Importance Sampling Expectation Maximization assisted by Mode a Posteriori, with MU referencing (where THETAs that define typical values of individual parameters, and are associated with random effects, are referenced in a PHI/MU format) to improve the efficiency of computations. The impact of post-dose observations below the lower limit of quantification (BLQ) was assessed in initial models by implementing the M3 method, which maximizes the likelihood for all the data treating BLQ observations as censored. The performance of the final PopPK model was evaluated using a confidence interval prediction-corrected visual predictive check (CI-pcVPC) method. In addition, the percentage of observations outside the overall 5th and 95th percentiles of the predicted data was calculated.
# Strong CYP3A4 inhibitors and inducers, as well as weight, were included in the base model.
# Continuous covariates were obtained from observations on the first day of dosing, or at screening if this value was not available. […] Categorical covariates were tested and incorporated in the model as a series of index variables taking on values of zero or one.
# The full model with backwards deletion approach was used for covariate modeling, with all covariate parameter relationships of interest entered into the model simultaneously. Highly correlated covariates were tested one at a time to avoid confounding in the estimation of covariate effects. A backwards deletion was carried out at the p = 0.001 significance level. The order of removal was based on the relative standard error and 95% confidence interval (CI) of the parameter estimate.
# [1] = reference: 70-kg individual without CMV, 800 mg
structure (smiles),measurement,setting,value
CC(C)Nc1nc2cc(Cl)c(Cl)cc2n1[C@H]1O[C@@H](CO)[C@H](O)[C@@H]1O [maribavir],CL/F higher in the presence of strong CYP3A4 inducers,final PopPK model,2.24 fold
same,CL/F lower in the presence of strong CYP3A4 inhibitors,final PopPK model,30%
same,"CL/F ~ CYP3A strong inducers, covariate estimate",final PopPK model,2.24
same,"CL/F ~ CYP3A strong inhibitors, covariate estimate",final PopPK model,0.700
same,"CL/F ~ transplant patients with CMV, covariate estimate",final PopPK model,0.756
same,CL/F lower for transplant recipients with CMV infection than for all other individuals,"human, in vivo",24%
same,"Ka (first-order absorption), PopPK estimate",[1],0.336 h^–1
same,"Lag-time, PopPK estimate",[1],0.271 h
same,"Q/F (inter-compartment clearance), PopPK estimate",[1],0.908 L/h
same,"Vc/F (apparent volume of central compartment), PopPK estimate",[1],18.6 L
same,"Vp/F (apparent volume of peripheral compartment), PopPK estimate",[1],8.66 L
same,"CL/F (apparent total clearance), PopPK estimate","reference: 70-kg individual without CMV, 800 mg maribavir, no CYP3A strong inhibitors or inducers",3.77 L/h
